According to patent publication US20040018984A1, “Methods for preventing adhesion formation using protease inhibitors” (priority 2002, published 2004):
Blank lines part the entries; values can stand above or below the compound they belong to.

Columns and labels:
[1] = tested on: Syrian hamsters; assay: Scoring of adhesion formation after uterine denudation surgery in hamsters; format: in vivo, hamster; conditions: for preventative effect, reducing adhesion formation: subsequent experiments in the hamster model with enantiomerically enriched preparations
Experimental: (§1) Mature female Syrian hamsters (SLC, Shizuoka, Japan), 6 weeks of age, weighing 85 to 90 g were maintained in an environmentally controlled room with a 12-hour light, 12-hour dark cycle. Hamsters were anesthetized with intraperitoneal sodium pentobarbital (50 mg/kg). Surgical technique was performed using a modified procedure of Nagler et al. (Am. J. Obstet. Gynecol. 180:558-63, 1999). An abdominal midline incision was made, and the right uterus was grasped and denuded of serosa over half the length of the uterine body until punctate hemorrhage occurred, using a swab. In the […], 1 ml of 10 μM Suc-Val-Pro-Phe^P(OPh)2 in saline was injected into the abdomen. Then, the abdomen was closed in two layers with silk sutures. In the placebo group, the same 1 ml amount of saline was administered as in the chymase inhibitor group.
(§2) Three days after the surgery, the animals (placebo group, n=13; chymase group, n=13) were anesthetized with sodium pentobarbital (50 mgikg, i.p.), and then the uterus was removed for the measurement of chymase activity. Two weeks after the surgery, the animals (placebo group, n=15; chymase group, n=16) were anesthetized with sodium pentobarbital (50 mg/kg, i.p.), and then adhesions were assessed.
The adhesions were graded blindly according to a modified classification of Hulka et al. (Fertil Steril. 30:661-665, 1978): Score 0, no adhesions; Score 1, mild adhesions; Score 2, localized moderate adhesions; Score 3, moderate and wide adhesions; Score 4, severe adhesions, and impossible to separate. Chymase activities were evaluated in a parametric test using Fisher's Protected Least Significant Difference. Adhesion scores were evaluated in a nonparametric test, and statistically analyzed by the Mann-Whitney's U test. Values are given as means ±standard error (S.E.). Differences were considered statistically significant at P<0.05.

[2] = tested on: chymotrypsin and chymotrypsin-like enzymes; conditions: cited from earlier work
[3] = target: T1, chymase (Homo sapiens, UniProt P23946); assay: Chymase activity in vascular tissues after administration during the operation; format: in vivo; conditions: for 4 weeks, 10 μM administration only during the operation
T1 construct: from tissue
T1 sequence (P23946 22-247): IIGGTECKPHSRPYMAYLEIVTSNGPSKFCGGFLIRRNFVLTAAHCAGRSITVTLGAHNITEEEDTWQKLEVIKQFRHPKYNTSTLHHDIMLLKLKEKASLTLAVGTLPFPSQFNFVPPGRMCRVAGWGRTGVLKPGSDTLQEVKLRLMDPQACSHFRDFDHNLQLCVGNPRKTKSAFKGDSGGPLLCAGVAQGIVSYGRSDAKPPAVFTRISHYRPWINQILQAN
Excerpt: Pursuant to the method of the present invention, at least one protease inhibitor is maintained in an effective concentration at the site of potential adhesion formation for a period of time sufficient to permit substantial re-epithelialization. The protease inhibitor compound is typically administered over the perioperative interval, which for purposes of the present invention may include a period of time prior to surgery, through surgery itself, and also post-completion of surgery. The term of administration of administration may vary, but typically should be effected from the time of surgery for at least 24 to 48 hours after completion of surgical procedures. In general, the protease inhibitory compound may be administered, with or without sustained release vehicles or formulations, from the time of surgery for a period ranging between about 24 hours and about 14 days (a period that generally will include complete healing). Preferably the compound may be administered as above from the time of surgery for a period ranging between about 24 hours and 7 days, and more preferably ranging between about 24 hours and 3 days. […] Effective dosages, regimens, and routes of administration for other protease inhibitors may be readily determined by one of skill in the art using the teachings provided herein.

[4] = cited from earlier work
[5] = tested on: chymase; assay: Uterus chymase activity after uterine denudation surgery in hamsters; format: in vivo, hamster; conditions: three days after the operation; 1 ml of 10 μM in saline injected into the abdomen; mean ± S.E.; P=0.06 vs placebo (0.88±0.09)
Experimental: as §1, with “In the placebo group, the same 1 ml amount of saline was administered as in the chymase inhibitor group.” left out
as §2, with “assessed. […]” for “assessed.”
Chymase activity was measured as described previously (Jin et al., J. Hypertens. 16:657-664, 1998). […] Protein concentration was measured with the bicinchoninic acid protein assay reagent (Pierce Chemical, Rockford, Ill.) using bovine serum albumin as a standard. […]

[6] = target: bovine thrombin (Bos taurus, UniProt P00735); conditions: cited from earlier work
[7] = target: human leukocyte elastase (Homo sapiens, UniProt P08246); conditions: cited from earlier work
human leukocyte elastase, sequence (P08246 30-267): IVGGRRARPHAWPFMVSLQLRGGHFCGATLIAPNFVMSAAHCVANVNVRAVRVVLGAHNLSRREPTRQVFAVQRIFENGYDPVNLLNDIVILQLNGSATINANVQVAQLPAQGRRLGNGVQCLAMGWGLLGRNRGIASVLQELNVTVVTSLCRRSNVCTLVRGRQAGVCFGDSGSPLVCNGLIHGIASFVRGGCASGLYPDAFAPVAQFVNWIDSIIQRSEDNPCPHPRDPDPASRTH

Compound: CC(C)[C@H](NC(=O)CCC(=O)O)C(=O)N1CCC[C@H]1C(=O)NC(Cc1ccccc1)P(=O)(Oc1ccccc1)Oc1ccccc1 (stereo partly drawn) [Suc-Val-Pro-Phe^P(OPh)2-I]
preventative effect, reducing adhesion formation [1]: not

chymase activity in vascular tissues [3]: significantly suppressed
uterus chymase activity [5]: 0.66±0.06 mU/mg protein
Compound: CC(C)[C@H](NC(=O)CCC(=O)O)C(=O)N1CCC[C@H]1C(=O)NC(Cc1ccccc1)P(=O)(Oc1ccccc1)Oc1ccccc1 (stereo partly drawn) [Suc-Val-Pro-Phe^P(OPh)2]
inhibitor potency for chymotrypsin and chymotrypsin-like enzymes [2]: relatively potent inhibitor
half-life in human plasma [4]: approximately 20 hr
scores of adhesion formation ([1]; two weeks after surgery, 1 ml of 10 μM in saline into the abdomen, score 0-4, mean ± S.E., placebo 2.07±0.34, difference significant): 0.88±0.20
highest score of adhesion formation found ([1]; two weeks after surgery, score 0-4, placebo scores between 0 and 4): ≤ 3

Compound: CC(C)(C)OC(=O)N[C@H](Cc1ccccc1)C(=O)N1CCC[C@H]1C(=O)NC(c1ccc(C(=N)N)cc1)P(=O)(Oc1ccccc1)Oc1ccccc1.Cl (stereo partly drawn) [diphenyl Boc-D-Phe-Pro-amino(4-amidinophenyl)methanephosphonate hydrochloride]
inhibitor potency for bovine thrombin [6]: potent phosphonate inhibitor

Compound: Boc-Val-Pro-Val^P(OPh)2
inhibitor potency for human leukocyte elastase [7]: relatively potent inhibitors

Compound: MeO-Suc-Ala-Ala-Pro-Val^P(OPh)2
inhibitor potency for human leukocyte elastase [7]: relatively potent inhibitors

Compound: CC(C)[C@H](NC(=O)CCC(=O)O)C(=O)N1CCC[C@H]1C(=O)NC(Cc1ccccc1)P(=O)(Oc1ccccc1)Oc1ccccc1 (stereo partly drawn) [Suc-Val-Pro-Phe^P(OPh)2-A]
preventative effect, reducing adhesion formation [1]: significant preventative effect
